Reference: ChEMBL document CHEMBL1201862, “PubChem BioAssay data set” (2004)
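Method: 48-hour compound exposure of cells in 96-well plates, five concentrations, linear interpolation of endpoints. Here, GI50 denotes the concentration required for 50% inhibition of growth.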 Active and inactive are the calls of the source. Cut-off read from the data, not from the text of the source: active = GI50 up to about 1.1 µM and inactive = higher.

Experiments:
Assay in all cases: growth of human tumour cells (NCI), 48 h
786-0 = system: 786-0
A549 = system: A549
CAKI-1 = system: CAKI-1
EKVX = system: EKVX
HL-60 = system: HL-60
IGROV-1 = system: IGROV-1
LOX IMVI = system: LOX IMVI
NCI-H460 = system: NCI-H460
NCI-H522 = system: NCI-H522
OVCAR-5 = system: OVCAR-5
SF-268 = system: SF-268
SN12C = system: SN12C
SNB-19 = system: SNB-19
TK-10 = system: TK-10
UACC-257 = system: UACC-257
UO-31 = system: UO-31
HOP-62 = system: HOP-62
OVCAR-3 = system: OVCAR-3
SK-OV-3 = system: SK-OV-3
HCC 2998 = system: HCC 2998

Measured: GI50

CC1=CC(=O)CC2(C)CCC(C(C)CC(=O)CC(C)C)CC12 (configuration not stated)
inactive: 786-0 16.4 µM | A549 17.8 µM | CAKI-1 16.4 µM | EKVX 48.9 µM | HL-60 4.39 µM | IGROV-1 26.2 µM | LOX IMVI 18.9 µM | NCI-H460 32.4 µM | NCI-H522 15.1 µM | OVCAR-5 > 100 µM | SF-268 55.8 µM | SN12C 17.7 µM | SNB-19 > 100 µM | TK-10 > 100 µM | UACC-257 23.9 µM | UO-31 31.2 µM

C=CCNC(=O)N(CCC)CCCC(NC(C)=O)C(=O)NCc1ccccc1 (configuration not stated)
inactive: 786-0 > 100 µM | A549 > 100 µM | CAKI-1 > 100 µM | EKVX > 100 µM | HL-60 > 100 µM | HOP-62 > 100 µM | IGROV-1 > 100 µM | LOX IMVI > 100 µM | NCI-H460 > 100 µM | NCI-H522 > 100 µM | OVCAR-3 > 100 µM | OVCAR-5 > 100 µM | SF-268 > 100 µM | SK-OV-3 > 100 µM | SN12C > 100 µM | SNB-19 > 100 µM | TK-10 > 100 µM | UACC-257 > 100 µM | UO-31 > 100 µM

CCOC(=O)Cc1cc(OC)c(OC)cc1/C(Cl)=C(\CO)c1ccc(OC)c(OC)c1
inactive: A549 > 100 µM | CAKI-1 > 100 µM | EKVX > 100 µM | HL-60 > 100 µM | IGROV-1 > 100 µM | LOX IMVI 87.9 µM | NCI-H460 > 100 µM | OVCAR-3 57.7 µM | SK-OV-3 > 100 µM | SN12C > 100 µM | SNB-19 50.2 µM | TK-10 > 100 µM | UACC-257 > 100 µM | UO-31 80.5 µM

CN(C)CCCNC(=S)S
inactive: 786-0 > 100 µM | A549 > 100 µM | CAKI-1 > 100 µM | EKVX > 100 µM | HL-60 > 100 µM | HOP-62 > 100 µM | IGROV-1 > 100 µM | LOX IMVI > 100 µM | NCI-H460 > 100 µM | NCI-H522 > 100 µM | OVCAR-3 > 100 µM | OVCAR-5 > 100 µM | SF-268 > 100 µM | SK-OV-3 > 100 µM | SN12C > 100 µM | SNB-19 > 100 µM | TK-10 > 100 µM | UACC-257 > 100 µM

COC(=O)C12C3C4C1C1C2C3C41C(=O)O (configuration not stated)
inactive: 786-0 > 100 µM | A549 > 100 µM | CAKI-1 > 100 µM | EKVX > 100 µM | HCC 2998 > 100 µM | HL-60 > 100 µM | HOP-62 > 100 µM | IGROV-1 > 100 µM | NCI-H460 > 100 µM | OVCAR-3 > 100 µM | OVCAR-5 > 100 µM | SF-268 > 100 µM | SK-OV-3 > 100 µM | SN12C > 100 µM | SNB-19 > 100 µM | TK-10 > 100 µM | UACC-257 > 100 µM | UO-31 > 100 µM

Nc1ncnc2c1ncn2C1C(O)C=C(CO)C1O (configuration not stated)
inactive: A549 > 625 µM | CAKI-1 > 625 µM | HCC 2998 > 625 µM | HL-60 467 µM | HOP-62 > 625 µM | IGROV-1 > 625 µM | LOX IMVI > 625 µM | NCI-H460 > 625 µM | OVCAR-3 > 625 µM | SF-268 > 625 µM | SK-OV-3 > 625 µM | SN12C > 625 µM | SNB-19 > 625 µM | UO-31 > 625 µM

COC(=O)N[C@H](C(=O)NC(OCc1ccccc1)C1COC(C)(C)O1)C(C)O[Si](C)(C)C(C)(C)C (some centres not stated)
inactive: 786-0 > 100 µM | A549 > 100 µM | CAKI-1 96.2 µM | EKVX > 100 µM | HCC 2998 77.8 µM | HL-60 75.7 µM | HOP-62 92.5 µM | IGROV-1 > 100 µM | NCI-H460 57.3 µM | OVCAR-5 > 100 µM | SF-268 > 100 µM | SK-OV-3 > 100 µM | SNB-19 > 100 µM | TK-10 > 100 µM | UACC-257 59.4 µM | UO-31 > 100 µM

OC1(c2ccc(Cl)cc2)c2ccc3ccccc3c2C2=N[C@H]3CCCC[C@@H]3N21 (some centres not stated)
inactive: A549 10 µM | CAKI-1 12.2 µM | EKVX 3.09 µM | HL-60 5.69 µM | HOP-62 2.54 µM | IGROV-1 13.5 µM | LOX IMVI 3.24 µM | NCI-H460 13.3 µM | NCI-H522 10.3 µM | OVCAR-3 1.63 µM | OVCAR-5 3.76 µM | SF-268 9.02 µM | SK-OV-3 14 µM | SN12C 38.5 µM | SNB-19 36.8 µM | TK-10 1.52 µM | UO-31 5.73 µM
